In US9980967B1, “Method for overcoming drug resistance of EGFR mutation and cancerous stemness of human non-small cell lung carcinoma” (NATIONAL CHIAO TUNG UNIVERSITY, priority 2017, dated 2018):

Key:
[1] = system: PLC26 cells; test: Annexin V/PI apoptosis flow cytometry in PLC26 cells; format: cell-based, human; settings: 30 μM for 24 hours
Procedure: At the end of treatment, apoptosis was measured by Annexin V-PI staining using flow cytometry analysis. The population of Annexin V+/PI− cells represents cells undergoing early apoptosis (low right), whereas the fraction of Annexin V+/PI+ cell are those undergoing late apoptosis (upper right).
We have further investigated the effect of SP101 in PLC26 lung cancer cells separated from the pleural effusion of a clinical lung cancer patient. To compare the cell viability of SP101 and Gefitinib in PLC26 cells, the cells were treated with 0˜40 μM SP101 or Gefitinib for 24 hours, and analyzed by MTT assays. Please refer to FIG. 21. […] The apoptosis levels of SP101 in PLC26 cells were analyzed by Annexin V and PI staining. The PLC26 cells were trypsinized and then incubated with propidium iodide (5 μl) and Annexin V-FITC (5 μl) at room temperature for 5 mins before flow cytometry. Please refer to FIG. 22.

[2] = system: PLC26 cells; test: MTT cell viability assay in PLC26 cells; format: cell-based, human; settings: 0~40 μM for 24 hours, compared with Gefitinib
Procedure: (§1) After treatment, the cells were re-cultured in fresh medium for 2 days. The cell viability was analyzed by MTT assays. The results were obtained from three independent experiments and the bar represents the mean±S.E.M. ***p<0.001 indicates significant difference between gefitinib and SP101 treated samples.
(§2) A549 (ATCC number: CCL-185) was a non-small cell lung carcinoma cell line which expressed wild type EGFR and with K-Ras mutation (G12S). H1975 (ATCC number: CRL-5908) was a non-small cell lung carcinoma cell line which expressed EGFR L858R/T790M mutation. Oct4 and Nanog overexpression in A549-ON presented the properties of cancer stem-like cells, as well as epithelial-mesenchymal transdifferentiation. PLC26 was lung cancer cells that separated from pleural effusion of a clinical lung cancer patient (IRB number: 103-011-E). A549-ON cells were cultured in DMEM medium. A549 and H1975 cells were maintained in RPMI-1640 medium. PLC26 cells were maintained in LHC-9 medium. […]
We have further investigated the effect of SP101 in PLC26 lung cancer cells separated from the pleural effusion of a clinical lung cancer patient. To compare the cell viability of SP101 and Gefitinib in PLC26 cells, the cells were treated with 0˜40 μM SP101 or Gefitinib for 24 hours, and analyzed by MTT assays. […] The apoptosis levels of SP101 in PLC26 cells were analyzed by Annexin V and PI staining. […]

[3] = target: T1, phosphorylated EGFR (Tyr1068) (Homo sapiens, UniProt P00533); test: Western blot of phosphorylated EGFR and total EGFR in A549 cells; format: cell-based; settings: 10~40 μM for 24 hours
T1 construct: endogenous in cells; host or cells: A549 (ATCC CCL-185)
T1 sequence (P00533 25-1210): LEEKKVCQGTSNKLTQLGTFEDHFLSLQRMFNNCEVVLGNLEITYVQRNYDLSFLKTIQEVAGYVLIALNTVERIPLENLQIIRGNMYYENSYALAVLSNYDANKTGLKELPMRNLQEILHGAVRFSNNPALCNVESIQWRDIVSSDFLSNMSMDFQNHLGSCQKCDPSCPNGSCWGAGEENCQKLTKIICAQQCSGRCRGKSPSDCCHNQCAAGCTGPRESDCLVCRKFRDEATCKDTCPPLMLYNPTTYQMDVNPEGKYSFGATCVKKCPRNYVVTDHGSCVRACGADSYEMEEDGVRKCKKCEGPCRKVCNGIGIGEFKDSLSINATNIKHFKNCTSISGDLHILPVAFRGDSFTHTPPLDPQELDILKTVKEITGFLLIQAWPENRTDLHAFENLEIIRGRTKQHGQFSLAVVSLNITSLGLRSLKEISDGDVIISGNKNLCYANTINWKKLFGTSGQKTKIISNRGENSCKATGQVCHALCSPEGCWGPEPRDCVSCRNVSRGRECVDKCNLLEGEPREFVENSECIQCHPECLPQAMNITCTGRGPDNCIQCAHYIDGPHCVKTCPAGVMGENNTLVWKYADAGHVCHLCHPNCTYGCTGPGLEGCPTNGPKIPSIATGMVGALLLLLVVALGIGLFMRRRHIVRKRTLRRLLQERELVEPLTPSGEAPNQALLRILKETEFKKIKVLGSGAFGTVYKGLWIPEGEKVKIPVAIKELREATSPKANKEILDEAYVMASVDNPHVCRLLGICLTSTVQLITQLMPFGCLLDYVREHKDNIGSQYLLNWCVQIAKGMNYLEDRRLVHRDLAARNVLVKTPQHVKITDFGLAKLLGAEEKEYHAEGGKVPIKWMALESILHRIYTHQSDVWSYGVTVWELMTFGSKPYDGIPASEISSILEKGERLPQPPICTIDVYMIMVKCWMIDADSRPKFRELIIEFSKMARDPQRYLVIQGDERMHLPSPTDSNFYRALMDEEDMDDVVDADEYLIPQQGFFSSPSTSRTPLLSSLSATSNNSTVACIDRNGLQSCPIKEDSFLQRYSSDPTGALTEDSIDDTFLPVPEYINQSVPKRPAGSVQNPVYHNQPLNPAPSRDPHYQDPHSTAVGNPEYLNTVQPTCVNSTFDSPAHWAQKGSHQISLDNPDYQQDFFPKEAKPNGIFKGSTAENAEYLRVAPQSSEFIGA
Procedure: At the end of treatment, the total protein extracts were prepared for Western blot analyses using specific antibodies, including rabbit anti-p-EGFR (Tyr1068), rabbit anti-EGFR and mouse anti-actin. Representative immunoblotting data were shown from one of three separate experiments with similar findings. Actin was an internal control protein.
Please refer to FIG. 14. The expressions of phosphorylated EGFR and total EGFR proteins after treatment with SP101 (10˜40 μM for 24 hours) in the K-Ras mutation A549 cells were analyzed by Western blot. […] Please refer to FIG. 15. We further examined the apoptosis levels of SP101 in A549 cells by Annexin V and PI staining. The cells were trypsinized and then incubated with propidium iodide (5 μl) and Annexin V-FITC (5 μl) at room temperature for 5 min before flow cytometry.

[4] = system: Survivin and cleaved Caspase 3 in xenograft tumor tissues; test: Western blot and IHC of Survivin and cleaved Caspase 3 in xenograft tumor tissues; format: in vivo, nude mice
From the text: FIG. 11 is a result of IHC immunohistochemistry staining showing that SP101 enhanced Caspase 3 protein level in NSCLC tumor tissues. Representative photographs were by IHC staining the active Caspase 3 proteins in the tumor sections. Positive cells were visualized by DAB staining (brown), counterstain with nuclei by hematoxylin.
Please refer to FIG. 10. The xenograft tumor tissues from each group were homogenized and the total lysates were subjected to Western blot analysis using specific antibodies, including rabbit anti-Survivin, rabbit anti-cleaved Caspase 3 and mouse anti-actin. Representative immunoblotting data were shown from one of two separate experiments with similar findings. Actin was an internal control protein. SP101 reduced Survivin protein level; meanwhile, SP101 induced the apoptotic protein level of cleaved Caspase 3.

[5] = system: A549-ON cells; test: MTT cell viability assay in A549-ON cells; format: cell-based, human; settings: 10~40 μM for 24 hours, concentration-dependent
Procedure: as §1, with “Gefitinib” for “gefitinib”
as §2, with “medium.” for “medium. PLC26 cells were maintained in LHC-9 medium.”
Please refer to FIG. 12. […] To compare the cell viability of SP101 and Gefitinib in K-Ras mutation-drug resistant A549 and A549-ON cell lines, the cells were treated with 0˜40 μM SP101 or Gefitinib for 24 hours, and analyzed by MTT assays. […] To determine the effect of SP101 and Gefitinib on the cell viability in cancer stem-like A549-ON cells, the cells were treated with 10˜40 μM SP101 or Gefitinib for 24 hours, and analyzed by MTT assays.

[6] = xenograft tumor tissues, Western blot

SMILES: CCCCCCCCCCCCOC(=O)CCC(=O)N1CCN(CCCOc2cc3c(Nc4ccc(F)c(Cl)c4)ncnc3cc2OC)CC1 [SP101, dodecyl 4-(4-(3-(4-(3-chloro-4-fluorophenylamino)-7-methoxyquinazolin-6-yloxy)propyl)piperazin-1-yl)-4-oxobutanoate]
- levels of Annexin V+/PI− cells (early apoptosis) and Annexin V+/PI+ cells (late apoptosis) [1]: significantly increased
- reduction of cell viability [2]: more effective on the reduction of cell viability than Gefitinib
- phosphorylated EGFR (Tyr1068) protein levels [3]: significantly reduced
- total EGFR protein levels [3]: did not alter
- Survivin protein level [4, 6]: reduced
- apoptotic protein level of cleaved Caspase 3 [4, 6]: induced
- reduction of Survivin protein and increasing of cleaved Caspase 3 protein level, compared with Gefitinib [4, 6]: more potent
- active forms of Caspase 3 protein ([4]; xenografted NSCLC tumors, IHC staining, compared with control and Gefitinib groups): significantly induced
- cell viability [5]: significantly reduced
